Where a SMILES comes first, the peptide text is derived from it.
Columns and labels:
Assay in all cases: HLA class I binding assay (cell-free competition, fluorescence polarization)
HLA A*0101 = HLA A*0101 (Homo sapiens, UniProt P04439, A114D/A174V/A182V/D101N/D185E/E176A/E190D/L180R/Q94H/R68K/S129P/T187R/V100A/V91M/W191G)
HLA A*0301 = HLA A*0301 (Homo sapiens, UniProt P04439)
HLA A*0201 = HLA A*0201 (Homo sapiens, UniProt P04439, D140Y/D185E/D98H/E176V/E277Q/G131W/G231S/I119V/I121R/I166T/I218V/L300P/L318F/N151K/N90K/P208A/P217A/Q86G/Q94H/R138H/R169H/T345S)
HLA A*2402 = HLA A*2402 (Homo sapiens, UniProt P04439, D101N/D140Y/D185E/E176V/E190D/F33S/G103R/G107R/I119L/I121M/I306V/K335N/L105A/L180Q/L300P/N151K/N90K/Q86E/Q94H/R106L/R138H/R89G/T104I/T345S/V100E/W191G/Y123F)

## CC(C)C[C@H](NC(=O)[C@H](C)NC(=O)[C@H](CO)NC(=O)[C@@H](NC(=O)[C@H](CCCCN)NC(=O)[C@H](CC(=O)O)NC(=O)[C@H](CCCNC(=N)N)NC(=O)[C@@H](N)CS)[C@@H](C)O)C(=O)N[C@@H](Cc1ccc(O)cc1)C(=O)O (H-CRDKTSALY-OH; N-terminus assumed)
HLA A*0101
  IC50: > 1000 µM

## CC(C)C[C@H](NC(=O)[C@H](CC(=O)O)NC(=O)[C@H](CC(=O)O)NC(=O)[C@H](CO)NC(=O)[C@@H](N)CC(=O)O)C(=O)N[C@@H](CCCCN)C(=O)N[C@@H](CCC(=O)O)C(=O)N[C@@H](CO)C(=O)N[C@@H](Cc1ccc(O)cc1)C(=O)O (H-DSDDLKESY-OH)
HLA A*0101
  IC50: 2.6 µM

## CC(C)[C@H](NC(=O)[C@H](CCC(=O)O)NC(=O)[C@H](Cc1ccccc1)NC(=O)[C@@H](NC(=O)[C@@H](N)CC(=O)O)[C@@H](C)O)C(=O)N[C@@H](Cc1ccc(O)cc1)C(=O)N[C@@H](CO)C(=O)N[C@@H](CCC(=O)O)C(=O)N[C@@H](Cc1ccc(O)cc1)C(=O)O (H-DTFEVYSEY-OH; N-terminus assumed)
HLA A*0101
  IC50: > 1000 µM
HLA A*0301
  IC50: > 1000 µM

## CC[C@H](C)[C@H](NC(=O)[C@@H](N)Cc1ccccc1)C(=O)N[C@@H](CC(=O)O)C(=O)N1CCC[C@H]1C(=O)N[C@@H](CCC(N)=O)C(=O)N[C@H](C(=O)N[C@@H](CCC(=O)O)C(=O)N[C@@H](CCSC)C(=O)N[C@@H](Cc1ccccc1)C(=O)N[C@@H](CCCCN)C(=O)O)[C@@H](C)O (H-FIDPQTEMFK-OH)
HLA A*0101
  IC50: 46.6 µM
HLA A*0301
  IC50: 8.1 µM

## CC(C)C[C@H](NC(=O)[C@@H]1CCCN1C(=O)[C@H](Cc1ccccc1)NC(=O)[C@H](CC(N)=O)NC(=O)[C@H](Cc1ccccc1)NC(=O)[C@H](CC(N)=O)NC(=O)[C@H](CCC(=O)O)NC(=O)[C@H](CC(C)C)NC(=O)[C@@H](N)Cc1ccccc1)C(=O)O (H-FLENFNFPL-OH)
HLA A*0101
  IC50: > 1000 µM
HLA A*0201
  IC50: 3.68 µM

## CC(C)[C@H](NC(=O)[C@H](CC(N)=O)NC(=O)[C@@H](NC(=O)[C@@H](N)Cc1ccccc1)[C@@H](C)O)C(=O)N[C@@H](CC(N)=O)C(=O)N[C@@H](CCC(N)=O)C(=O)N[C@@H](Cc1ccccc1)C(=O)N[C@@H](Cc1ccccc1)C(=O)N[C@@H](CCCCN)C(=O)O (H-FTNVNQFFK-OH)
HLA A*0101
  IC50: > 1000 µM
HLA A*0301
  IC50: 0.921 µM

## NCCCC[C@H](NC(=O)[C@H](CO)NC(=O)CN)C(=O)N[C@@H](CC(N)=O)C(=O)N[C@@H](CC(=O)O)C(=O)N[C@@H](Cc1ccccc1)C(=O)N[C@@H](CCC(N)=O)C(=O)N[C@@H](CCC(N)=O)C(=O)N[C@@H](CCC(N)=O)C(=O)N[C@@H](Cc1ccc(O)cc1)C(=O)O (H-GSKNDFQQQY-OH; N-terminus assumed)
HLA A*0101
  IC50: > 1000 µM

## CC(C)C[C@H](NC(=O)CNC(=O)[C@@H]1CCCN1C(=O)[C@H](Cc1ccccc1)NC(=O)[C@@H](NC(=O)[C@H](CO)NC(=O)[C@@H](NC(=O)[C@@H](N)Cc1c[nH]cn1)[C@@H](C)O)C(C)C)C(=O)N[C@@H](Cc1ccc(O)cc1)C(=O)O (H-HTSVFPGLY-OH)
HLA A*0101
  IC50: 5.65 µM

## CC[C@H](C)[C@H](NC(=O)CNC(=O)[C@H](Cc1ccc(O)cc1)NC(=O)[C@@H](N)Cc1c[nH]cn1)C(=O)N[C@@H](CC(N)=O)C(=O)N1CCC[C@H]1C(=O)N[C@H](C(=O)N[C@@H](CCC(N)=O)C(=O)N[C@@H](CC(C)C)C(=O)O)C(C)C (H-HYGINPVQL-OH)
HLA A*2402
  IC50: 6.79 µM

## CC(C)[C@H](NC(=O)[C@H](CCCNC(=N)N)NC(=O)[C@H](CC(N)=O)NC(=O)[C@H](CCCCN)NC(=O)[C@H](Cc1ccc(O)cc1)NC(=O)[C@@H](NC(=O)[C@H](CC(N)=O)NC(=O)[C@H](Cc1ccc(O)cc1)NC(=O)[C@@H](N)Cc1c[nH]cn1)[C@@H](C)O)C(=O)N[C@@H](Cc1ccccc1)C(=O)O (H-HYNTYKNRVF-OH)
HLA A*2402
  IC50: 3 µM

## CC[C@H](C)[C@H](N)C(=O)N[C@H](C(=O)N[C@@H](CC(N)=O)C(=O)N[C@@H](CCCCN)C(=O)N[C@@H](CC(N)=O)C(=O)N[C@@H](CCCCN)C(=O)N[C@H](C(=O)N[C@H](C(=O)N[C@H](C(=O)N[C@@H](Cc1ccc(O)cc1)C(=O)O)[C@@H](C)CC)[C@@H](C)O)C(C)C)[C@@H](C)O (H-ITNKNKVTIY-OH)
HLA A*0101
  IC50: > 1000 µM
HLA A*0301
  IC50: 8.72 µM

## CC[C@H](C)[C@H](N)C(=O)N[C@@H](Cc1c[nH]c2ccccc12)C(=O)N[C@@H](Cc1ccc(O)cc1)C(=O)N[C@@H](CCCCN)C(=O)N[C@@H](Cc1ccc(O)cc1)C(=O)N[C@H](C(=O)N[C@@H](CCC(=O)O)C(=O)N[C@@H](CO)C(=O)N[C@@H](CC(=O)O)C(=O)N[C@@H](Cc1ccccc1)C(=O)O)[C@@H](C)O (H-IWYKYTESDF-OH)
HLA A*2402
  IC50: 1.12 µM

## CC(C)[C@H](NC(=O)[C@H](CCC(=O)O)NC(=O)[C@H](Cc1ccccc1)NC(=O)[C@@H](NC(=O)[C@H](CC(=O)O)NC(=O)[C@H](CC(=O)O)NC(=O)[C@H](CCC(=O)O)NC(=O)[C@@H](N)CCCCN)[C@@H](C)O)C(=O)N[C@@H](Cc1ccc(O)cc1)C(=O)O (H-KEDDTFEVY-OH; N-terminus assumed)
HLA A*0101
  IC50: > 1000 µM

## CC[C@H](C)[C@H](NC(=O)[C@@H](N)CC(C)C)C(=O)N[C@@H](CO)C(=O)N[C@@H](CCCNC(=N)N)C(=O)N[C@@H](CC(C)C)C(=O)N[C@H](C(=O)N[C@@H](CC(C)C)C(=O)N[C@@H](CCCCN)C(=O)N[C@@H](Cc1ccc(O)cc1)C(=O)O)[C@@H](C)O (H-LISRLTLKY-OH)
HLA A*0101
  IC50: 11.5 µM

## CC[C@H](C)[C@H](NC(=O)[C@H](CC(N)=O)NC(=O)[C@H](CCC(=O)O)NC(=O)[C@@H](NC(=O)[C@H](CC(N)=O)NC(=O)[C@H](CO)NC(=O)[C@H](CO)NC(=O)[C@@H](N)CC(C)C)[C@@H](C)CC)C(=O)N[C@@H](Cc1ccc(O)cc1)C(=O)O (H-LSSNIENIY-OH)
HLA A*0101
  IC50: 29.6 µM

## CC(C)C[C@H](N)C(=O)N[C@H](C(=O)N[C@@H](Cc1c[nH]cn1)C(=O)N[C@@H](CCCCN)C(=O)N[C@@H](Cc1ccc(O)cc1)C(=O)N[C@@H](CC(N)=O)C(=O)N[C@@H](CCC(=O)O)C(=O)N[C@@H](Cc1ccccc1)C(=O)N[C@H](C(=O)O)C(C)C)[C@@H](C)O (H-LTHKYNEFV-OH)
HLA A*0101
  IC50: 174 µM
HLA A*0201
  IC50: 2.41 µM

## CSCC[C@H](NC(=O)[C@H](CC(N)=O)NC(=O)[C@H](CC(N)=O)NC(=O)[C@H](CCCNC(=N)N)NC(=O)[C@H](Cc1ccccc1)NC(=O)[C@H](CC(N)=O)NC(=O)[C@H](CC(N)=O)NC(=O)[C@@H](N)CC(N)=O)C(=O)N[C@@H](Cc1ccc(O)cc1)C(=O)O (H-NNNFRNNMY-OH; N-terminus assumed)
HLA A*0101
  IC50: > 1000 µM

## CC[C@H](C)[C@H](NC(=O)[C@H](CC(C)C)NC(=O)[C@H](CC(=O)O)NC(=O)[C@H](CC(C)C)NC(=O)[C@H](CCCCN)NC(=O)[C@H](CC(=O)O)NC(=O)[C@H](CO)NC(=O)[C@@H](N)CC(N)=O)C(=O)N[C@@H](Cc1ccc(O)cc1)C(=O)O (H-NSDKLDLIY-OH)
HLA A*0101
  IC50: 0.875 µM

## CC(C)[C@H](NC(=O)[C@H](CC(N)=O)NC(=O)[C@@H]1CCCN1C(=O)[C@H](CO)NC(=O)[C@@H](N)CC(N)=O)C(=O)N[C@@H](CC(N)=O)C(=O)N[C@@H](CCCCN)C(=O)N[C@@H](CCCNC(=N)N)C(=O)N[C@@H](Cc1ccc(O)cc1)C(=O)O (H-NSPNVNKRY-OH; N-terminus assumed)
HLA A*0101
  IC50: > 1000 µM

## CC(C)C[C@H](NC(=O)[C@H](C)NC(=O)[C@H](CC(=O)O)NC(=O)[C@H](Cc1ccccc1)NC(=O)[C@@H](NC(=O)[C@@H](N)CC(N)=O)[C@@H](C)O)C(=O)N[C@@H](Cc1ccc(O)cc1)C(=O)N[C@@H](Cc1ccc(O)cc1)C(=O)N[C@H](C(=O)O)C(C)C (H-NTFDALYYV-OH)
HLA A*0101
  IC50: > 1000 µM
HLA A*0201
  IC50: 8.76 µM

## CC(C)[C@H](NC(=O)[C@@H](NC(=O)[C@@H](N)CC(N)=O)[C@@H](C)O)C(=O)N[C@@H](CCCCN)C(=O)N[C@@H](CS)C(=O)N1CCC[C@H]1C(=O)N[C@@H](CC(N)=O)C(=O)N[C@@H](CC(=O)O)C(=O)N[C@@H](Cc1ccc(O)cc1)C(=O)O (H-NTVKCPNDY-OH)
HLA A*0101
  IC50: 282 µM

## C[C@H](NC(=O)[C@H](CO)NC(=O)[C@@H](N)CO)C(=O)N[C@@H](CC(N)=O)C(=O)N[C@@H](CC(=O)O)C(=O)N[C@@H](CCC(=O)O)C(=O)N[C@@H](CCC(N)=O)C(=O)N[C@@H](CO)C(=O)N[C@@H](Cc1ccc(O)cc1)C(=O)O (H-SSANDEQSY-OH)
HLA A*0101
  IC50: 65 µM

## CC[C@H](C)[C@H](NC(=O)[C@H](CC(=O)O)NC(=O)[C@@H](NC(=O)[C@@H](N)CO)[C@@H](C)O)C(=O)N[C@H](C(=O)N[C@@H](Cc1ccccc1)C(=O)N[C@@H](CC(C)C)C(=O)N[C@H](C(=O)N[C@@H](CCSC)C(=O)N[C@@H](CCCCN)C(=O)O)[C@@H](C)O)[C@@H](C)CC (H-STDIIFLTMK-OH)
HLA A*0101
  IC50: > 1000 µM
HLA A*0301
  IC50: 8.78 µM

## CSCC[C@H](NC(=O)[C@H](CC(N)=O)NC(=O)[C@H](CCC(N)=O)NC(=O)[C@H](CC(N)=O)NC(=O)[C@H](C)NC(=O)[C@H](CCSC)NC(=O)[C@@H](N)[C@@H](C)O)C(=O)N[C@@H](CC(N)=O)C(=O)N[C@@H](Cc1ccc(O)cc1)C(=O)O (H-TMANQNMNY-OH)
HLA A*0101
  IC50: 2.02 µM
HLA A*0301
  IC50: 0.943 µM

## C[C@@H](O)[C@H](N)C(=O)N[C@@H](CO)C(=O)N[C@@H](CCCCN)C(=O)N[C@@H](CCC(N)=O)C(=O)NCC(=O)N[C@@H](CO)C(=O)N[C@@H](CO)C(=O)N[C@@H](CC(N)=O)C(=O)N[C@@H](CCCCN)C(=O)N[C@@H](Cc1ccc(O)cc1)C(=O)O (H-TSKQGSSNKY-OH; N-terminus assumed)
HLA A*0101
  IC50: > 1000 µM

## CC(C)[C@H](NC(=O)[C@H](CO)NC(=O)[C@H](CCC(=O)O)NC(=O)[C@H](Cc1ccccc1)NC(=O)[C@H](Cc1ccccc1)NC(=O)[C@@H](NC(=O)[C@@H](N)[C@@H](C)O)[C@@H](C)O)C(=O)N[C@@H](CO)C(=O)N[C@@H](Cc1ccc(O)cc1)C(=O)O (H-TTFFESVSY-OH)
HLA A*0101
  IC50: 338 µM
HLA A*0301
  IC50: 658 µM

From publication PMC8138313, “Identification, Selection and Immune Assessment of Liver Stage CD8 T Cell Epitopes From Plasmodium falciparum” (Frontiers in Immunology, 2021)
